#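 1) Cells in 96-well plates. 2) Compound, 48 h, 5 concentrations. 3) Linear interpolation between surrounding doses. 4) Unreached endpoint = highest concentration. The concentration for 50% growth inhibition is given as GI50.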 Active and inactive are the calls of the source. Cut-off read from the data, not from the text of the source: active = GI50 up to about 1.1 µM and inactive = higher.
# Columns and labels:
# Experiment in all cases: NCI-60 cell line screen, 48 h
# LOX IMVI = tested on: LOX IMVI
# OVCAR-8 = tested on: OVCAR-8
# SF-539 = tested on: SF-539
# CCRF-CEM = tested on: CCRF-CEM
# Malme-3M = tested on: Malme-3M
# KM12 = tested on: KM12
# CAKI-1 = tested on: CAKI-1
# SNB-75 = tested on: SNB-75
# SNB-19 = tested on: SNB-19
# SK-MEL-2 = tested on: SK-MEL-2
# OVCAR-3 = tested on: OVCAR-3
# SF-295 = tested on: SF-295
# 786-0 = tested on: 786-0
# NCI-H23 = tested on: NCI-H23
# HT-29 = tested on: HT-29
# SK-OV-3 = tested on: SK-OV-3
# M14 = tested on: M14
# MDA-MB-231 = tested on: MDA-MB-231
# NCI-H460 = tested on: NCI-H460
SMILES,GI50 (LOX IMVI),GI50 (OVCAR-8),GI50 (SF-539),GI50 (CCRF-CEM),GI50 (Malme-3M),GI50 (KM12),GI50 (CAKI-1),GI50 (SNB-75),GI50 (SNB-19),GI50 (SK-MEL-2),GI50 (OVCAR-3),GI50 (SF-295),GI50 (786-0),GI50 (NCI-H23),GI50 (HT-29),GI50 (SK-OV-3),GI50 (M14),GI50 (MDA-MB-231),GI50 (NCI-H460)
COc1ccc2nc3cc([N+](=O)[O-])ccc3c(NNc3ccc([N+](=O)[O-])cc3)c2c1,61.1 µM (inactive),> 58.1 µM (inactive),45.6 µM (inactive),30.8 µM (inactive),30.1 µM (inactive),24.5 µM (inactive),0.818 µM (active),67.9 µM (inactive),24 µM (inactive),27.6 µM (inactive),22.4 µM (inactive),22 µM (inactive),36.9 µM (inactive),28.4 µM (inactive),7.46 µM (inactive),98.4 µM (inactive),43.4 µM (inactive),44 µM (inactive),3.16 µM (inactive)
COc1ccc(CC(C)NCC(O)c2ccc(O)c(NC=O)c2)cc1 (stereo not drawn),> 100 µM (inactive),> 100 µM (inactive),> 100 µM (inactive),> 100 µM (inactive),> 100 µM (inactive),> 100 µM (inactive),42.2 µM (inactive),> 100 µM (inactive),> 100 µM (inactive),> 100 µM (inactive),> 100 µM (inactive),33.9 µM (inactive),> 100 µM (inactive),> 100 µM (inactive),86.7 µM (inactive),> 100 µM (inactive),> 100 µM (inactive),< 0.01 µM (active),> 100 µM (inactive)
CCN(CC)C1Oc2cc3c(cc2C(c2cccc(OC)c2OC)C1C)OCO3 (stereo not drawn),3.66 µM (inactive),3.56 µM (inactive),10.2 µM (inactive),2.17 µM (inactive),8.51 µM (inactive),4.9 µM (inactive),2.82 µM (inactive),6.03 µM (inactive),8.07 µM (inactive),6.07 µM (inactive),2.7 µM (inactive),3.16 µM (inactive),4.16 µM (inactive),8.47 µM (inactive),3.65 µM (inactive),4.53 µM (inactive),12.1 µM (inactive),13.3 µM (inactive),3.63 µM (inactive)
O=C(CSc1ncccn1)N/N=C/c1ccccc1OCc1ccccc1,17.4 µM (inactive),28.7 µM (inactive),20.8 µM (inactive),15.3 µM (inactive),32.4 µM (inactive),28.4 µM (inactive),26.4 µM (inactive),21.5 µM (inactive),45.3 µM (inactive),21.3 µM (inactive),16.4 µM (inactive),21.6 µM (inactive),34.6 µM (inactive),32.3 µM (inactive),34.1 µM (inactive),37.6 µM (inactive),29.2 µM (inactive),30.9 µM (inactive),30.1 µM (inactive)
CCOC(=O)CC1Nc2ccccc2C12CCc1c([nH]c3ccccc13)C2C(=O)OCC (stereo not drawn),26.5 µM (inactive),> 100 µM (inactive),88.1 µM (inactive),0.359 µM (active),10.5 µM (inactive),14.8 µM (inactive),6.58 µM (inactive),0.0728 µM (active),> 100 µM (inactive),27 µM (inactive),22.2 µM (inactive),3.61 µM (inactive),47.5 µM (inactive),51.2 µM (inactive),11.6 µM (inactive),6.4 µM (inactive),30.5 µM (inactive),22.9 µM (inactive),14.2 µM (inactive)
COc1ccc(C2=C(N)c3c(OC)cccc3C2=O)cc1,99.5 µM (inactive),62.2 µM (inactive),15 µM (inactive),> 100 µM (inactive),> 100 µM (inactive),> 100 µM (inactive),> 100 µM (inactive),> 100 µM (inactive),> 100 µM (inactive),> 100 µM (inactive),> 100 µM (inactive),86.1 µM (inactive),85.1 µM (inactive),> 100 µM (inactive),> 100 µM (inactive),> 100 µM (inactive),97.5 µM (inactive),96.6 µM (inactive),> 100 µM (inactive)
O=C1C(c2cnc3ccccc3n2)=C(O)c2ccccc21,47.3 µM (inactive),> 75.7 µM (inactive),> 100 µM (inactive),> 100 µM (inactive),> 100 µM (inactive),7.08 µM (inactive),> 24.5 µM (inactive),22 µM (inactive),> 85.3 µM (inactive),> 100 µM (inactive),> 100 µM (inactive),> 64 µM (inactive),84.3 µM (inactive),> 100 µM (inactive),> 74.1 µM (inactive),> 46.5 µM (inactive),> 100 µM (inactive),> 100 µM (inactive),6.9 µM (inactive)
c1ccc(C2SCc3nc4cc5ccccc5cc4n32)cc1 (stereo not drawn),> 100 µM (inactive),> 100 µM (inactive),> 100 µM (inactive),> 100 µM (inactive),> 100 µM (inactive),> 100 µM (inactive),> 100 µM (inactive),70.1 µM (inactive),> 100 µM (inactive),> 100 µM (inactive),> 100 µM (inactive),85.5 µM (inactive),60.4 µM (inactive),> 100 µM (inactive),> 100 µM (inactive),> 100 µM (inactive),> 100 µM (inactive),> 100 µM (inactive),
CCN(CC)CCC(=O)c1ccc(Sc2ccc(F)cc2)cc1,17.4 µM (inactive),19.4 µM (inactive),17.7 µM (inactive),7.28 µM (inactive),16 µM (inactive),15.7 µM (inactive),16 µM (inactive),17.5 µM (inactive),17.6 µM (inactive),21.1 µM (inactive),18.8 µM (inactive),19.3 µM (inactive),10.8 µM (inactive),17.7 µM (inactive),21.8 µM (inactive),23.3 µM (inactive),20.5 µM (inactive),16.9 µM (inactive),17.7 µM (inactive)
O=C(Nc1nncs1)NS(=O)(=O)n1c(=S)sc2ccccc21,> 100 µM (inactive),> 100 µM (inactive),> 100 µM (inactive),24.9 µM (inactive),> 100 µM (inactive),> 100 µM (inactive),> 100 µM (inactive),> 100 µM (inactive),> 100 µM (inactive),> 100 µM (inactive),> 100 µM (inactive),> 100 µM (inactive),> 100 µM (inactive),> 100 µM (inactive),> 100 µM (inactive),> 100 µM (inactive),> 100 µM (inactive),> 100 µM (inactive),> 100 µM (inactive)
CCC(C)C(C(=O)N/N=C1/SCC(=O)N1c1ccccc1)C(=O)N/N=C1/SCC(=O)N1c1ccccc1 (stereo not drawn),38.4 µM (inactive),39.7 µM (inactive),> 100 µM (inactive),46.1 µM (inactive),21.2 µM (inactive),27.5 µM (inactive),> 100 µM (inactive),44.9 µM (inactive),> 100 µM (inactive),33.7 µM (inactive),28.6 µM (inactive),> 100 µM (inactive),> 100 µM (inactive),36.6 µM (inactive),> 100 µM (inactive),22.2 µM (inactive),47.1 µM (inactive),28.8 µM (inactive),> 100 µM (inactive)
Clc1ccc(Nc2nnc(CNc3ccc(-c4nnc(Nc5ccc(Cl)cc5)o4)cc3)o2)cc1,6.95 µM (inactive),8.87 µM (inactive),18.6 µM (inactive),7.13 µM (inactive),14.7 µM (inactive),8.36 µM (inactive),17.9 µM (inactive),24.8 µM (inactive),18.7 µM (inactive),18.3 µM (inactive),11.2 µM (inactive),19.9 µM (inactive),8 µM (inactive),15.9 µM (inactive),12.2 µM (inactive),22.6 µM (inactive),17.1 µM (inactive),7.93 µM (inactive),14.9 µM (inactive)
CC1=NN(C(=O)c2ccncc2)C(=O)C1,> 100 µM (inactive),> 100 µM (inactive),> 100 µM (inactive),> 100 µM (inactive),> 100 µM (inactive),> 100 µM (inactive),> 100 µM (inactive),> 100 µM (inactive),> 100 µM (inactive),> 100 µM (inactive),> 100 µM (inactive),> 100 µM (inactive),> 100 µM (inactive),> 100 µM (inactive),> 100 µM (inactive),> 100 µM (inactive),> 100 µM (inactive),32.2 µM (inactive),> 100 µM (inactive)
CCOn1c(C2(CC3CCN(C(=O)c4ccccc4)CC3)OCCO2)cc2ccccc21,15.7 µM (inactive),14.3 µM (inactive),18.7 µM (inactive),12.6 µM (inactive),18.2 µM (inactive),15.8 µM (inactive),15.4 µM (inactive),16.5 µM (inactive),16.7 µM (inactive),16.8 µM (inactive),16.4 µM (inactive),15.8 µM (inactive),16.5 µM (inactive),19.5 µM (inactive),18.9 µM (inactive),19.3 µM (inactive),16.7 µM (inactive),15.5 µM (inactive),14.1 µM (inactive)
CCOC(=O)C(C)(C)Oc1ccc(Cl)cc1 [CLOFIBRATE],156 µM (inactive),63.1 µM (inactive),366 µM (inactive),596 µM (inactive),215 µM (inactive),324 µM (inactive),> 1000 µM (inactive),229 µM (inactive),> 1000 µM (inactive),173 µM (inactive),,319 µM (inactive),462 µM (inactive),303 µM (inactive),159 µM (inactive),986 µM (inactive),> 1000 µM (inactive),> 1000 µM (inactive),632 µM (inactive)

# From ChEMBL document CHEMBL1201862, “PubChem BioAssay data set” (2004)
